Assay: mn = molality of the nth substance listed, in mol/kg
Details: 100 kPa, Liquid, Vibrating tube method

CCCC[N+]1(C)CCOCC1.O=S(=O)([N-]S(=O)(=O)C(F)(F)F)C(F)(F)F + CC#N
mass density [kg/m3]
Details	m1 = 0.00879	m1 = 0.01653	m1 = 0.02761	m1 = 0.03802	m1 = 0.05226	m1 = 0.06737	m1 = 0.08642	m1 = 0.1101	m1 = 0.13	m1 = 0.1623
298.15 K	778.005	779.272	781.074	782.759	785.036	787.436	790.427	794.115	797.144	802.019
303.15 K	772.575	773.845	775.647	777.331	779.607	781.999	784.994	788.679	791.717	796.577
308.15 K	767.12	768.39	770.192	771.873	774.153	776.549	779.543	783.226	786.253	791.135
313.15 K	761.631	762.901	764.703	766.385	768.667	771.064	774.057	777.74	780.771	785.644
318.15 K	756.103	757.375	759.178	760.862	763.147	765.551	768.552	772.235	775.257	780.136

CC[N+]1(C)CCOCC1.O=S(=O)([N-]S(=O)(=O)C(F)(F)F)C(F)(F)F + CC#N
mass density [kg/m3]
Details	m1 = 0.009434	m1 = 0.01654	m1 = 0.02652	m1 = 0.03788	m1 = 0.05256	m1 = 0.06858	m1 = 0.08695	m1 = 0.1078	m1 = 0.1316	m1 = 0.1634
298.15 K	778.145	779.333	780.985	782.85	785.24	787.81	790.74	794.037	797.714	802.54
303.15 K	772.716	773.905	775.56	777.429	779.815	782.385	785.318	788.611	792.286	797.108
308.15 K	767.263	768.452	770.11	771.974	774.365	776.944	779.877	783.146	786.836	791.661
313.15 K	761.774	762.964	764.619	766.483	768.876	771.442	774.373	777.657	781.334	786.155
318.15 K	756.247	757.44	759.113	760.976	763.372	765.945	768.855	772.158	775.832	780.648

CCCCCCCC[N+]1(C)CCOCC1.O=S(=O)([N-]S(=O)(=O)C(F)(F)F)C(F)(F)F + CC#N
mass density [kg/m3]
Details	m1 = 0.00838	m1 = 0.01564	m1 = 0.02472	m1 = 0.03714	m1 = 0.05106	m1 = 0.06653	m1 = 0.08502	m1 = 0.1052	m1 = 0.1294	m1 = 0.1609
298.15 K	777.974	779.195	780.71	782.766	785.044	787.549	790.507	793.696	797.448	802.25
303.15 K	772.547	773.77	775.289	777.348	779.63	782.14	785.101	788.29	792.039	796.85
308.15 K	767.094	768.318	769.839	771.899	774.185	776.698	779.664	782.856	786.61	791.423
313.15 K	761.606	762.833	764.357	766.421	768.71	771.222	774.189	777.385	781.149	785.97
318.15 K	756.08	757.311	758.838	760.906	763.198	765.716	768.695	771.901	775.667	780.493

Source: the NIST ThermoML archive (doi:10.1021/je400790d)
